{
  "source": "paper PMC6422671",
  "about": "(British Journal of Clinical Pharmacology, 2019)",
  "key": {"[1]": {"settings": "preclinical study in dogs; cited from earlier work"}, "[2]": {"test": "Urinary pharmacokinetics after single oral dose, phase I", "type": "in vivo, healthy men", "settings": "male, human, urine", "experimental": "Urine was collected for pharmacokinetic analyses before dosing (spot sample) and 0–3, 3–6, 6–9, 9–12, 12–24, 24–36 and 36–48 hours after dosing (pooled samples). Samples for determination of AZD4831 in urine were analysed by Covance Laboratories Ltd. (Harrogate, UK). […] This method was validated prior to sample analysis in the range 20–20 000 nmol L^−1 in urine, using a 25 μL sample aliquot."}},
  "note": "Where two headings read alike, the source gives them in different places.",
  "data": [
    {"smiles": "C[C@@H](N)c1cc(Cl)ccc1Cn1c(=S)[nH]c(=O)c2[nH]ccc21", "note": "[AZD4831]", "values": [
      {"measurement": "dose at which no adverse effects were observed", "setting": "[1]", "result": 20, "unit": "mg kg^−1 per day"},
      {"measurement": "CL renal", "setting": "[2]; 5 mg, 5 mg fasted, geometric mean (CV), read-out: CLR (converted)", "result": 252, "unit": "mL/min"},
      {"measurement": "CL renal", "setting": "[2]; 5 mg, 5 mg fasted, read-out: mean renal clearance (converted)", "result": 257, "unit": "mL/min"},
      {"measurement": "CL renal", "setting": "[2]; 15 mg, 15 mg fasted, geometric mean (CV), read-out: CLR (converted)", "result": 240, "unit": "mL/min"},
      {"measurement": "CL renal", "setting": "[2]; 45 mg, 45 mg fasted, geometric mean (CV), read-out: CLR (converted)", "result": 162, "unit": "mL/min"},
      {"measurement": "CL renal", "setting": "[2]; 135 mg, 135 mg fasted, geometric mean (CV), read-out: CLR (converted)", "result": 157, "unit": "mL/min"},
      {"measurement": "CL renal", "setting": "[2]; 405 mg, 405 mg fasted, geometric mean (CV), read-out: CLR (converted)", "result": 132, "unit": "mL/min"},
      {"measurement": "CL renal", "setting": "[2]; 405 mg, 405 mg fasted, read-out: mean renal clearance (converted)", "result": 148, "unit": "mL/min"}
    ]}
  ]
}
